Assay results reported in the NIST ThermoML archive (doi:10.1021/je900732r).

Test: mn = molality of the nth substance listed, in mol/kg
Conditions: 101 kPa, Liquid

[Co+2].[O-][Cl+3]([O-])([O-])[O-].[O-][Cl+3]([O-])([O-])[O-] [cobalt(II) perchlorate] + C[S+](C)[O-]
mass density [kg/m3]
Conditions | 293.15 K | 298.15 K | 303.15 K | 313.15 K | 323.15 K | 333.15 K
m1 = 0.01481 | 1103.37 | 1098.35 | 1093.34 | 1083.31 | 1073.29 | 1063.26
m1 = 0.0215 | 1104.79 | 1099.78 | 1094.77 | 1084.75 | 1074.74 | 1064.73
m1 = 0.03236 | 1107.1 | 1102.1 | 1097.1 | 1087.09 | 1077.1 | 1067.1
m1 = 0.04309 | 1109.4 | 1104.4 | 1099.41 | 1089.42 | 1079.44 | 1069.46
m1 = 0.05528 | 1112.02 | 1107.03 | 1102.04 | 1092.06 | 1082.1 | 1072.14
m1 = 0.06505 | 1114.13 | 1109.14 | 1104.15 | 1094.2 | 1084.25 | 1074.3
m1 = 0.08726 | 1118.94 | 1113.97 | 1109 | 1099.07 | 1089.15 | 1079.22
m1 = 0.1069 | 1123.24 | 1118.27 | 1113.31 | 1103.39 | 1093.51 | 1083.61
m1 = 0.1285 | 1127.98 | 1123.03 | 1118.08 | 1108.19 | 1098.33 | 1088.47
m1 = 0.148 | 1132.32 | 1127.38 | 1122.44 | 1112.57 | 1102.73 | 1092.9
m1 = 0.1695 | 1137.12 | 1132.18 | 1127.26 | 1117.42 | 1107.6 | 1097.8
m1 = 0.1911 | 1141.97 | 1137.05 | 1132.14 | 1122.33 | 1112.53 | 1102.76
m1 = 0.2111 | 1146.48 | 1141.57 | 1136.67 | 1126.88 | 1117.12 | 1107.38
